Test results reported in ChEMBL document CHEMBL1201862, “PubChem BioAssay data set” (2004).
Activity calls are given as the source filed them.

What was measured:
[1] = HIV-1 AD8 envelope cell-cell fusion blockers – cherry-pick, dose response (AID 652062); format: functional, cell-based;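 also: luciferase signal from cell-cell fusion driven by HIV-1 clade B AD8 Env; potency is for inhibitors of fusion seen as a drop in luminescence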
[2] = blockers of HIV-1 envelope-mediated cell-cell fusion – cherry-pick, dose response (AID 652057); format: functional, cell-based
[3] = off-target signal loss in HeLa-CEM21 co-culture – HeLa F-luc CTL cells, cherry-picked, counter-screen for HIV-1 Env fusion inhibitor project, dose response (AID 652040); format: functional, cell-based;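 also: potency for signal decrease marking cytotoxic or nonspecific inhibition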
Estrogen receptor = target: T1, Estrogen receptor (Homo sapiens, UniProt P03372);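 also: potency for inhibiting coactivator peptide recruitment to the receptor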
T1 sequence (P03372 whole entry): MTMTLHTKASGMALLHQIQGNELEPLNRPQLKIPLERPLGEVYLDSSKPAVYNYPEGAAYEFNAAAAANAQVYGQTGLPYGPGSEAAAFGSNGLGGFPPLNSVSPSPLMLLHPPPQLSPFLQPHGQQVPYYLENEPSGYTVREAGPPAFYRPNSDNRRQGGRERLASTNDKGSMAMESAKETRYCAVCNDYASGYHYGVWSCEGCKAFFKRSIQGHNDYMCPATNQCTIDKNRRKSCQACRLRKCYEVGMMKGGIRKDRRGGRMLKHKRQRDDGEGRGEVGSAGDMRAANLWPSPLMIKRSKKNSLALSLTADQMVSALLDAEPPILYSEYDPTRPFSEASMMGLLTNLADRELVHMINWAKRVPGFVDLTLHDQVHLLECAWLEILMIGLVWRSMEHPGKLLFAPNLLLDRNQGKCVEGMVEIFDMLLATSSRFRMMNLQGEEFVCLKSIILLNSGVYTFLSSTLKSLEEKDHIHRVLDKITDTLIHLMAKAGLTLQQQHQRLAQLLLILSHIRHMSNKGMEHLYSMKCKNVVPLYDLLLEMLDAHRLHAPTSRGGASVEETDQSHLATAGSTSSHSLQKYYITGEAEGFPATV

[4] = target: T2, Low molecular weight phosphotyrosine protein phosphatase (Homo sapiens, UniProt P24666); format: functional; details: read-out: IC50_Mean;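 also: Dose-response confirmation assay measuring inhibition of LMPTP enzyme activity by fluorescence intensity read-out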
T2 sequence (P24666 whole entry): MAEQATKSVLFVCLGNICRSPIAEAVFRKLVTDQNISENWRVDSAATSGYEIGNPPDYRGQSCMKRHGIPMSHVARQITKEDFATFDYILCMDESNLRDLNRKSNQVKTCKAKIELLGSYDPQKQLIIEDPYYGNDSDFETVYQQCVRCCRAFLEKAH

[5] = target: T3, Endoribonuclease toxin MazF (Escherichia coli K-12, UniProt P0AE70); test: substrate-only fluorescence increase artefacts – biochemical, single-stranded RNase substrate, counter-screen for MazEF activator project, dose response (AID 588502); format: functional
T3 sequence (P0AE70 whole entry): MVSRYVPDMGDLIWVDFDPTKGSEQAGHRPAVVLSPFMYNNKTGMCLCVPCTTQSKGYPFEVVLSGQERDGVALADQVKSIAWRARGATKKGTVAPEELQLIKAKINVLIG

[6] = target: T3, Endoribonuclease toxin MazF; test: activation of MazEF endoribonuclease cleavage – biochemical, fluorescence, single-stranded RNA substrate, uHTS hits, dose response (AID 588481); format: functional
[7] = target: T4, Sentrin-specific protease 8 (Homo sapiens, UniProt Q96LD8); format: functional
T4 sequence (Q96LD8 whole entry): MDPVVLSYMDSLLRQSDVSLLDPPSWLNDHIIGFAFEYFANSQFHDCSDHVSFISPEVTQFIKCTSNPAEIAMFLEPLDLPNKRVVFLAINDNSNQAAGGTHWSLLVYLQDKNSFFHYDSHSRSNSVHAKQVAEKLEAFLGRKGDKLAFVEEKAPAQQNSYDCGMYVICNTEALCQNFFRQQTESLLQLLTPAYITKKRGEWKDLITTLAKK

[8] = target: T4, Sentrin-specific protease 8; format: functional; remark: listed apart in the source
[9] = Fluorescence-based cell-based high throughput dose response assay for inhibitors of the interaction of nucleotide-binding oligomerization domain containing 2 (NOD2) and the receptor-interacting serine-threonine kinase 2 (RIPK2).; format: functional; details: Homo sapiens
Protein RecA = target: T5, Protein RecA (Mycobacterium tuberculosis, UniProt P9WHJ3); test: Fluorescence Cell-Free Homogeneous Dose Retest to Identify Inhibitors of RecA-Intein Splicing Activity. [Related pubchem assays (depositor defined):AID2097, AID2223, AID489010, AID492950]; format: functional
T5 sequence (P9WHJ3 whole entry): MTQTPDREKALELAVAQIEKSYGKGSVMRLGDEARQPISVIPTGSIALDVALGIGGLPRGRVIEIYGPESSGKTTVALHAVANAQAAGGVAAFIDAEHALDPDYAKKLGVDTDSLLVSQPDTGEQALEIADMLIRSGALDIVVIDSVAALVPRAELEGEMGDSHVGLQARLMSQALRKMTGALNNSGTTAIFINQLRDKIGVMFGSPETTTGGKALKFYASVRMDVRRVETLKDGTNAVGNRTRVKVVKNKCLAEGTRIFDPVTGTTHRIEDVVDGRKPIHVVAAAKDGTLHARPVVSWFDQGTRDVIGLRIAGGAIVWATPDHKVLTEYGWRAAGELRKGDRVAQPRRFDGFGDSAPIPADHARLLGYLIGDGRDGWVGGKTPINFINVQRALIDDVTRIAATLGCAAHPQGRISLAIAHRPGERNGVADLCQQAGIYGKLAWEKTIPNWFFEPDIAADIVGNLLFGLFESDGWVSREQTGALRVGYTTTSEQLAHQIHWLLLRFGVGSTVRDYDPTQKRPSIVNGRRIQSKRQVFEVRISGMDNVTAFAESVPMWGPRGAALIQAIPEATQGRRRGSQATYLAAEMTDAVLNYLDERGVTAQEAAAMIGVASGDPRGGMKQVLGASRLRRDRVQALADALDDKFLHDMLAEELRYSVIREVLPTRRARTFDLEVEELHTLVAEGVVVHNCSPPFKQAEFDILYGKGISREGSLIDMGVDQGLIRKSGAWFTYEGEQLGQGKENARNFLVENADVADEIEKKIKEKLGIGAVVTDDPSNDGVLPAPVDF

[10] = target: T6, Replicative DNA helicase DnaB (Mycobacterium tuberculosis, UniProt P9WMR3); test: DnaB intein splicing inhibitors, dose response, biochemical, cell-free fluorescence (AID 449749); format: functional
T6 sequence (P9WMR3 whole entry): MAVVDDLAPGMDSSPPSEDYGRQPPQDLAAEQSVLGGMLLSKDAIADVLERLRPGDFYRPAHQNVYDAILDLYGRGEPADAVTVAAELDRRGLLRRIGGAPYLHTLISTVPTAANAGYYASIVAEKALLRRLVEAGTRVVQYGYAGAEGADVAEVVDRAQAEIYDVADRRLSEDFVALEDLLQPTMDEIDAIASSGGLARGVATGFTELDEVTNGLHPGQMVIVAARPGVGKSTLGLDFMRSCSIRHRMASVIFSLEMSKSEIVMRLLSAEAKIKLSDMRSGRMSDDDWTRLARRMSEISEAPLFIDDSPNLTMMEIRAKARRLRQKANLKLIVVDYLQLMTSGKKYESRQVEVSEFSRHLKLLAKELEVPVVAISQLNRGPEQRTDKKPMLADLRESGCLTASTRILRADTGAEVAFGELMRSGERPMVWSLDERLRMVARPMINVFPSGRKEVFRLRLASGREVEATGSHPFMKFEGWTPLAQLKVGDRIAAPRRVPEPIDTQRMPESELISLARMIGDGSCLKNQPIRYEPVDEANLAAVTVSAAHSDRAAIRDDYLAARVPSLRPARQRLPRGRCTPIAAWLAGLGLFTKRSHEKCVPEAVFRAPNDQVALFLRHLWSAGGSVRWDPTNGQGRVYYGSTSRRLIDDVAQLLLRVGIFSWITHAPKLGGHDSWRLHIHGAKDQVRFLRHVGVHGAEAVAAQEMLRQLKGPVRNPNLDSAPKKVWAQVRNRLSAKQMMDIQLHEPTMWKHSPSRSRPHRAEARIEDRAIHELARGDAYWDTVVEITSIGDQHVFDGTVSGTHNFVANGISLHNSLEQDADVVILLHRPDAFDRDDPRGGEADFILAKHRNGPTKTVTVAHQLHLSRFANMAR

[11] = target: ADP-ribosylation factor GTPase-activating protein 1 (Rattus norvegicus, UniProt Q62848); test: Fluorescence polarization-based biochemical high throughput dose response screening assay to identify inhibitors of ADP-ribosylation factor GTPase activating protein 1 (ARFGAP1).; format: functional
Chain of ADP-ribosylation factor GTPase-activating protein 1 (Q62848 whole entry): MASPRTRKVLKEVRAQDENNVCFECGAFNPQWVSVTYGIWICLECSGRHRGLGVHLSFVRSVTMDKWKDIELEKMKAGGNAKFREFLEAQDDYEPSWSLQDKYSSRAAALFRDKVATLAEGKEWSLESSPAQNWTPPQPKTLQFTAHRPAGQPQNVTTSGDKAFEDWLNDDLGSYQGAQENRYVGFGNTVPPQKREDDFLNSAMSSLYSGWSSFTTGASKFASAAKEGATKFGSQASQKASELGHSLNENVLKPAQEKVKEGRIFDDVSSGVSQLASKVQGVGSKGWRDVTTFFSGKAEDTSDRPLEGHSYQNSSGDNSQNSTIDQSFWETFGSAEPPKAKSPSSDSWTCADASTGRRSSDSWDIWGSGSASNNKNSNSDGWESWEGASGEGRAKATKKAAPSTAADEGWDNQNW

[12] = NIH3T3 cell viability loss – ATP luminescence, mouse fibroblasts, counter-screen, dose response (AID 2010); format: functional, cell-based;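 also: cells exposed to compound for about 90 hours before reading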
[13] = viability of PTEN-deleted HCT116 cells – cell-based, HCT116 PTEN knockout, dose response (AID 1047); format: functional;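 also: HCT116 colon tumor cells with PTEN knocked out; cells exposed to compound for 60 hours before readout; potency for loss of cell viability measured by luminescence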
[14] = Trypanosoma cruzi growth suppression in host cells – NIH3T3 host cells, beta-gal luminescence, confirmation (AID 2044); format: functional, cell-based;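 also: intracellular parasites grown in NIH/3T3 mouse fibroblasts as host cells; luminescent beta-galactosidase reporter signal from transgenic T. cruzi replicating inside host cells; inhibitors lower the luminescence signal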
[15] = viability of HCT116 lacking mutant beta-catenin – cell-based, human colon tumor, dose response (AID 1045); format: functional;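 also: HCT116 colon tumor cells with beta catenin knocked out; cells exposed to compound for 60 hours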
[16] = general cell-killing toxicity readout – plate reader, dry powder samples, cytotoxicity control for PAX8 inhibitor project, dose response (AID 743021); format: functional, cell-based
[17] = Luminescence-based counterscreen assay for KLF5 inhibitors: dose response cell-based high throughput screening assay to identify cytotoxic compounds using the IEC-6 intestinal epithelial cell line. [Related pubchem assays: 1700 (Primary screen.), 1834 (Confirmation screen.), 1858 (Summary AID.), 1905 (Counterscreen.)]; format: functional
Paired box protein Pax-8 = Paired box protein Pax-8 (Homo sapiens, UniProt Q06710); test: PAX8 transcriptional activity inhibition in RMG-I – RMG-I cells, luciferase, cherry-pick, dose response (AID 687027); format: functional, cell-based;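 also: luciferase reporter driven by Pax8 target thyroperoxidase promoter measured by SteadyGlo luminescence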
Chain of Paired box protein Pax-8 (Q06710 whole entry): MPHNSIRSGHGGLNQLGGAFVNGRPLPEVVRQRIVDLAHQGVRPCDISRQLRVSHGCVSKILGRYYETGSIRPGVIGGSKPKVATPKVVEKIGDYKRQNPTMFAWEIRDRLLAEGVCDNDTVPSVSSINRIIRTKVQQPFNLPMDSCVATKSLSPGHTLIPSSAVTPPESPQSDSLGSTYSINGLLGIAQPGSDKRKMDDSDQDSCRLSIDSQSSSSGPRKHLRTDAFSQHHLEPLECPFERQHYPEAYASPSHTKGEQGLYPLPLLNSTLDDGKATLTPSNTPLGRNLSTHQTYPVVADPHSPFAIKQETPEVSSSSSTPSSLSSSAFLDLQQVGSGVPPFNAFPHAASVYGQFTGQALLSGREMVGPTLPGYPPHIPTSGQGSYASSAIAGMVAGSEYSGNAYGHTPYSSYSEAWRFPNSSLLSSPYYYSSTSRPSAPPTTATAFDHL

[18] = target: T7, Heat shock factor protein 1 (Mus musculus, UniProt P38532); test: decrease of HSF1-responsive luciferase luminescence – cell-based, NIH3T3, dose retest, confirmation (AID 2382); format: functional;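 also: NIH3T3 fibroblasts with HSF1-driven luciferase reporter stressed by proteasome inhibitor MG132; luminescence from HSF1-driven luciferase expression after 8 hours of MG132 stress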
T7 sequence (P38532 whole entry): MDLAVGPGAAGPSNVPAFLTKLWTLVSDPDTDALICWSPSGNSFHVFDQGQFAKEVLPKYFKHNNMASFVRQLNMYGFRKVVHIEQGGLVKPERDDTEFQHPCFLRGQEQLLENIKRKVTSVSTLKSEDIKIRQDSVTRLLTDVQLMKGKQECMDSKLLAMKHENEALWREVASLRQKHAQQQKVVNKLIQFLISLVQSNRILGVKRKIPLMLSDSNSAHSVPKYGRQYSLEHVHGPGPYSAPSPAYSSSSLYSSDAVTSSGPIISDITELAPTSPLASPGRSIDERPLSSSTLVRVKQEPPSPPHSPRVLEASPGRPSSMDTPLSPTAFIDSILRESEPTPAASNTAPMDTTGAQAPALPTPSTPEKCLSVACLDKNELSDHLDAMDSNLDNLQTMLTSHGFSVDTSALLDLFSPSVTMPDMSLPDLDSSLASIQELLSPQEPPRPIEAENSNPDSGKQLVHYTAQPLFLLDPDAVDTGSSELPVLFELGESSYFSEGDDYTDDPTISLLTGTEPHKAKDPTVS

[19] = blockers of HIV-1 ZM109 envelope-driven cell-cell fusion – HeLa effector, CEM target cells, luciferase, cherry-pick, dose response (AID 652058); format: functional, cell-based;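 also: luciferase signal from HIV-1 Env mediated cell-cell fusion of effector and target cells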

SMILES: O=C(CN1CCCN(Cc2ccc(F)cc2Cl)C1=O)NC1CCCCCCC1
- AC50 [1]: 44.3 µM (active)
- AC50 [2]: 30.1 µM (active)
- AC50 [3]: > 70 µM (inactive)

SMILES: Cc1onc(-c2ccccc2Cl)c1C(=O)NCc1cccnc1
- IC50 (Estrogen receptor): > 50 µM (not active)

SMILES: O=C(COC(=O)CCOc1ccccc1)NCc1ccco1
- IC50 (Estrogen receptor): 16.6 µM (active)

SMILES: CN(C)/C=C/C(=O)c1ccc(OCCN(C)c2ccccn2)cc1
- IC50 [4]: 29.9 µM (inactive)

SMILES: CCOC(=O)CSc1nc2ccc(C)cc2cc1C#N
- EC50 [5]: > 99 µM (inactive)
- EC50 [6]: 9.32 µM (active)

SMILES: O=S1(=O)NC2c3ccccc3CC2O1 (stereo not drawn)
- IC50 [7]: 19.5 µM (active)
- IC50 [8]: 9.78 µM (active)

SMILES: Cc1cccc(C(=O)OCc2cc3ccccc3[nH]c2=O)c1
- EC50 [5]: > 99 µM (inactive)
- EC50 [6]: > 99 µM (inactive)

SMILES: O=C(Nc1ccc(F)cc1)c1nn(-c2ccccc2)c(=O)cc1Cl
- IC50 [9]: 4.16 µM (active)
- EC50 (Protein RecA): 8.71 µM (active)
- AC50 [10]: 11.9 µM (active)

SMILES: CCn1cc(C=C2C(=O)c3ccccc3C2=O)c2ccccc21
- EC50 [5]: 35.9 µM (inactive)
- EC50 [6]: > 99 µM (inactive)

SMILES: Cc1ccc2nc(SCC(=O)N3CCCC3)nc(=O)n2c1
- IC50 [11]: 45.2 µM (inactive)

SMILES: N#Cc1c(NC(=O)C2CC(c3c(F)cccc3Cl)=NO2)sc2c1CCC2 (stereo not drawn)
- IC50 [11]: 43.6 µM (inactive)

SMILES: O=C1CSC(=S)N1N=Cc1c(O)ccc2ccccc12
- EC50 [5]: > 99 µM (inactive)
- EC50 [6]: > 99 µM (inactive)

SMILES: Cc1ccc(/C=N/c2ccc(N(C)C)cc2)o1
- IC50 [7]: > 100 µM (inactive)
- EC50 [12]: > 60 µM (not active)
- EC50 [13]: 42.3 µM (active)
- EC50 [14]: 1.12 µM (active)
- EC50 [15]: 58 µM (active)
- IC50 [8]: 18.1 µM (active)

SMILES: COCCCn1c(=O)/c(=C\c2ccccc2OC(F)F)s/c1=C(/C#N)C(=O)NCCOC
- EC50 [5]: > 99 µM (inactive)
- EC50 [6]: > 99 µM (inactive)

SMILES: O=C(C[C@H]1C[C@@H]2c3cc(NC(=O)C4CCOCC4)ccc3O[C@@H]2[C@@H](CO)O1)NCc1ccc(Oc2ccccc2)cc1
- AC50 [16]: 65.1 µM (active)

SMILES: COc1cc(/C=N/O)ccc1OCc1ccc(C(=O)O)cc1
- AC50 [16]: 25.6 µM (active)
- IC50 [17]: > 39.8 µM (not active)
- AC50 [1]: 1.49 µM (active)
- AC50 (Paired box protein Pax-8): 5.79 µM (active)
- EC50 [18]: 1.78 µM (active)
- AC50 [2]: 0.351 µM (active)
- AC50 [3]: 0.82 µM (active)
- AC50 [19]: 6.61 µM (active)
